According to patent publication US20250302833A1, “PHARMACEUTICAL COMPOSITION FOR TREATING OR PREVENTING CYSTIC DISEASE” (CHUGAI SEIYAKU KABUSHIKI KAISHA, priority 2022, published 2025):

How the values were obtained:
[1] = system: pcy mice (naturally occurring PKD model); experiment: Suppression of increase in renal volume and decrease in renal function in pcy mice; format: in vivo, mouse; conditions: compared to tolvaptan
Method: The pcy mice, a naturally occurring PKD model, were used to evaluate the effects of tolvaptan and compound 4 in Test Example 1 on (a) renal volume, (b) blood urea nitrogen (UN) concentration, (c) body weight, and (d) urine volume in pcy mice.
The pcy mice (5 weeks of age at the start of this test) were grouped into 3 groups of 13 mice each. Compound 4 or tolvaptan was administered to each of the test compound administration groups. The administration period was 5 weeks. Compound 4 was administered subcutaneously once daily and tolvaptan was administered subcutaneously at a weekly pace. Compound 4 was administered at 33-40 mg/kg per dose and tolvaptan was administered at 25-30 mg/kg per dose. Compound 4 and tolvaptan were administered after dissolved in 50% DMSO/50% glycerol. A group of mice of the parental line was provided as a normal control group (Normal Control) (N=7). The 50% DMSO/50% glycerol was administered to the normal control group and the Vehicle group of pcy mice at 1 mL/kg.
The left renal volume (renal volume (mL)) of mice was calculated by the following formula using echography 5 weeks after the start of administration of the test compound, as shown in FIG. 3a.
After that, blood was collected from the abdominal vena cava, plasma was collected, and euthanasia treatment was performed. Blood urea nitrogen (UN) concentration (Plasma UN (mg/L)) was measured using L-type Waco UN (Fujifilm Wako Pure Chemical Corporation), as shown in FIG. 3b.
In addition, the body weight (Body weight (g)) of mice was measured every 7 days after the start of administration of the test compound, as shown in FIG. 3c. Furthermore, the volume of urine (Urine volume (mL/day)) was calculated from the specific gravity and measured weight of urine 5 weeks after the start of administration of the test compound, as shown in FIG. 3d.

human PiT2 = target: T1, human PiT2 (Homo sapiens, UniProt Q08357); experiment: 33PO4 uptake inhibition in CHO cells expressing human PiT2; format: cell-based; conditions: CHO cells transiently expressing human PiT2, pH 6.5
T1 construct: expressed in transfected cells; host or cells: CHO cells, transient transfection with Fugene HD
T1 sequence (Q08357 1-652): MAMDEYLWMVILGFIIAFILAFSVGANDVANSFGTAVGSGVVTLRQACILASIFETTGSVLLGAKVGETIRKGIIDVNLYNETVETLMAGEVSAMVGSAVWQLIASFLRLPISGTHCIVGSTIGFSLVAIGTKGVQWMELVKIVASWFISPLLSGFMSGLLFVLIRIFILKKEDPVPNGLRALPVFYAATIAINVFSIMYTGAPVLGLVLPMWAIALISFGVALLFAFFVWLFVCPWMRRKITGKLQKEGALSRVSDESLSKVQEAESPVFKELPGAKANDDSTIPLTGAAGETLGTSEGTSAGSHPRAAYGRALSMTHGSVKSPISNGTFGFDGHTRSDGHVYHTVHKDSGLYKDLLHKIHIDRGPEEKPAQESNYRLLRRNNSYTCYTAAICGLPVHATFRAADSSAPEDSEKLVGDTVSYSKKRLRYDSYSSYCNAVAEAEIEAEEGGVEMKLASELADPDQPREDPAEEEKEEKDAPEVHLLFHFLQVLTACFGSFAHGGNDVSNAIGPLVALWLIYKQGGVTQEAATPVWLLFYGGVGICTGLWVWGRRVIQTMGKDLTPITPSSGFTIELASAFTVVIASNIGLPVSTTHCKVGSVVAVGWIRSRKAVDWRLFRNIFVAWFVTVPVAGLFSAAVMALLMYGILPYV
Method: (§1) For transient expression, human NaPi-IIb expression plasmids, human PiT1 expression plasmids, human PiT2 expression plasmids, and Fugene HD Transfection (Promega Corporation) were added to CHO cells using a 96-well plate, and the plate was incubated in a C02 incubator for 16 hours. The medium was replaced with buffer A (145 mM choline chloride, 3 mM KCl, 1 mM CaCl2), 0.5 mM MgCl2, 5 mM glucose, 5 mM MES, (pH 6.5)), and then replaced with buffer B (145 mM NaCl, 3 mM KCl, 1 mM CaCl2, 0.5 mM MgCl2, 5 mM glucose, 5 mM MES (pH 6.5)) to which a test compound was added at the final concentration of 0.01, 0.03, 0.1, 0.3, 1, 3, 10, or 30 μM, buffer A to which DMSO was added, or buffer B to which DMSO was added. After a certain time, a 1/20 amount of buffer A containing ^33PO4 (PerkinElmer Japan G. K.) was added and reacted at room temperature. After washing with ice-cooled buffer A, a liquid scintillator (MicroScint™-20, item number 6013621, PerkinElmer Japan G.K.) was added, and the ^33PO4 uptake amount was measured with the top count (Top Count NXT, PerkinElmer Japan G.K.). The inhibition rate was determined by the following formula. Here, a certain time was set to 10 minutes. […]

human PiT1 = target: T2, human PiT1 (Homo sapiens, UniProt Q8WUM9); experiment: 33PO4 uptake inhibition in CHO cells expressing human PiT1; format: cell-based; conditions: CHO cells transiently expressing human PiT1, pH 6.5
T2 construct: expressed in transfected cells; host or cells: CHO cells, transient transfection with Fugene HD
T2 sequence (Q8WUM9 1-679): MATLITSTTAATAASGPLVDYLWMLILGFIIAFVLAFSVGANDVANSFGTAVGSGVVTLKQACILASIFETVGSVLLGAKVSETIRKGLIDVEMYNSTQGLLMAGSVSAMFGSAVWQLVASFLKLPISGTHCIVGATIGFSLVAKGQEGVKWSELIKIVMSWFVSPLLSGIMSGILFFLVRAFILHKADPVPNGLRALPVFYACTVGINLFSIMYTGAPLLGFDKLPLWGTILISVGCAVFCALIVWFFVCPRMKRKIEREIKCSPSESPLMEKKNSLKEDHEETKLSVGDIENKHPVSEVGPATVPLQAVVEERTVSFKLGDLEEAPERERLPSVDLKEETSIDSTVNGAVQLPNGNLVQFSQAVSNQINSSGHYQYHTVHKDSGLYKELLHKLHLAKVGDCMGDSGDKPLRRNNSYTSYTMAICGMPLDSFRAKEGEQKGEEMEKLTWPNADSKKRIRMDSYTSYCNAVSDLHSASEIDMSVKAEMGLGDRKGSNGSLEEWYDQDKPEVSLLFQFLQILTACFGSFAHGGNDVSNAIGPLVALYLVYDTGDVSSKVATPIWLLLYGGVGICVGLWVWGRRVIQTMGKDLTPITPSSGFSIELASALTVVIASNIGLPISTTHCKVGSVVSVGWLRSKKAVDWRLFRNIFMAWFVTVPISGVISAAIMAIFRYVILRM
Method: as §1

CCCN([C@H]1CC[C@H](C(=O)[O-])CC1)S(=O)(=O)c1cccc(C(=O)Nc2sc3c(c2C(=O)Nc2ccc(CCCc4ccc(C(=O)[O-])cc4)cc2)CCCC3)c1.[Na+].[Na+] [Compound 4, Disodium; 4-[3-[4-[[2-[[3-[(4-carboxylatocyclohexyl)-propylsulfamoyl]benzoyl]ami-no]-4,5,6,7-tetrahydro-1-benzothiophene-3-carbonyl]amino]phenyl]pro-pyl]benzoic acid]
Body weight (weight loss) ([1]; 5 weeks administration): less weight loss | Urine volume ([1]; 5 weeks after start of administration): no increase in urine volume | Suppression effect on increase in renal volume ([1]; 33-40 mg/kg s.c. once daily, 5 weeks, left renal volume by echography): same degree of suppression effects | Suppression effect on decrease in renal function (blood urea nitrogen) ([1]; 33-40 mg/kg s.c. once daily, 5 weeks, plasma UN): same degree of suppression effects | IC50 (human PiT2): > 30 µM | IC50 (human PiT1): > 30 µM
